# ChEMBL document CHEMBL2074240, “VX-710 (biricodar) increases drug retention and enhances chemosensitivity in resistant cells overexpressing P-glycoprotein, multidrug resistance protein, and breast cancer resistance protein” (Clin Cancer Res, 2004)
# Molecular target: ATP-dependent translocase ABCB1 (Homo sapiens, UniProt P08183)
# Assay: TP_TRANSPORTER: increase in mitoxantrone intracellular accumulation (Mitoxantrone: 3 uM, VX-710: 2.5 uM) in A2780/Dx5b cells
# Assay type: functional, cell-based
# Sequence of ATP-dependent translocase ABCB1 (P08183 whole entry): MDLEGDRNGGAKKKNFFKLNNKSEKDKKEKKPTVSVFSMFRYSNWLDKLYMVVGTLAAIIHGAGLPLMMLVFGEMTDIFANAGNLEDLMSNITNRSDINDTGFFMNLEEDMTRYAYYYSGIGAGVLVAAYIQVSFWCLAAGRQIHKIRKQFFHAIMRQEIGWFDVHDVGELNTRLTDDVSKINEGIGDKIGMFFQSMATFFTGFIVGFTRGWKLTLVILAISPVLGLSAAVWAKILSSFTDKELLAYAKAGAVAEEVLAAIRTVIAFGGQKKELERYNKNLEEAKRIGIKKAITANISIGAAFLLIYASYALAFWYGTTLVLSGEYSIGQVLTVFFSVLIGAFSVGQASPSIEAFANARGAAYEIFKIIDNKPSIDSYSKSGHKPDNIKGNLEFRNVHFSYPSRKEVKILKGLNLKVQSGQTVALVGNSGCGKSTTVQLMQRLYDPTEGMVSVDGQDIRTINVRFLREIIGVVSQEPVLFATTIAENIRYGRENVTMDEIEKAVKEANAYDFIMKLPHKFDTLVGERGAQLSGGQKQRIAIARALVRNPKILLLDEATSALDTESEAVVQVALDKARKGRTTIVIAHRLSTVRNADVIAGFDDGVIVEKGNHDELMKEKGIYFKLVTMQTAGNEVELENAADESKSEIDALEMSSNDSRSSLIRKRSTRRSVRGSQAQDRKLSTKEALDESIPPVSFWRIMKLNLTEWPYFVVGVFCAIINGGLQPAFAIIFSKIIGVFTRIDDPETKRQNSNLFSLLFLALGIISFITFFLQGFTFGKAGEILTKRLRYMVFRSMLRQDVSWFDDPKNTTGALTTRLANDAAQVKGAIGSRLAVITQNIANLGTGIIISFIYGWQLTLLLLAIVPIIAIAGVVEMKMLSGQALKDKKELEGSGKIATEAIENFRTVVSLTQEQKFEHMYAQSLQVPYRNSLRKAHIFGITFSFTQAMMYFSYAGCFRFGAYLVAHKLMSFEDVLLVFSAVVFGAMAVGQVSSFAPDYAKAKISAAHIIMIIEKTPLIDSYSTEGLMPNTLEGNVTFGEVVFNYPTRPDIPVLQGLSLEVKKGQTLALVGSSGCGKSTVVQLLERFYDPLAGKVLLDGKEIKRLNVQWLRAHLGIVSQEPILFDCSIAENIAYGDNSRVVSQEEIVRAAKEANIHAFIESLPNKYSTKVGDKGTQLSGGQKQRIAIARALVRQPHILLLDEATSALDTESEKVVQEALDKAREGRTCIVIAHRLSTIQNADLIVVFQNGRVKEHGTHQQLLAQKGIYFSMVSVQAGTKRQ
structure (smiles),measurement,value
COc1cc(C(=O)C(=O)N2CCCC[C@H]2C(=O)OC(CCCc2cccnc2)CCCc2cccnc2)cc(OC)c1OC [BIRICODAR],Activity,inhibitor [+]
